Experimental data as given in ChEMBL document CHEMBL2034968, “Discovery of novel urea-based hepatitis C protease inhibitors with high potency against protease-inhibitor-resistant mutants” (J Med Chem, 2012).
pEC50, pIC50: −log10 of the molar value.

How the values were obtained:
[1] = system: Hepatitis C virus; experiment: Ratio of EC50 for TMC-435350 to EC50 for compound against Hepatitis C virus subtype 1b harboring protease R155K mutant by transient replicon assay; format: functional, Hepacivirus hominis, genotype 1b
[2] = system: Liver; experiment: Ratio of drug level in liver to plasma in rat at 5 mg/kg, po; format: ADME, organism-based; design: dose 5 mg/kg, route oral; settings: other tissue
[3] = Inhibition of HCV 1a protease 1a domain; design: species or system Hepacivirus hominis
[4] = system: Hepatitis C virus; experiment: Antiviral activity against Hepatitis C virus subtype 1b harboring protease A156S mutant by transient replicon assay; format: functional, organism-based, Hepacivirus hominis; settings: genotype 1b
[5] = AUC in rat liver at 5 mg/kg, po; format: ADME, organism-based; design: dose 5 mg/kg, route oral
[6] = system: Hepatitis C virus; experiment: Ratio of EC50 for danoprevir to EC50 for compound against Hepatitis C virus subtype 1b harboring protease R155K mutant by transient replicon assay; format: functional, Hepacivirus hominis, genotype 1b
[7] = system: Hepatitis C virus; experiment: Antiviral activity against Hepatitis C virus subtype 1b harboring protease A156T mutant by transient replicon assay; format: functional, organism-based, Hepacivirus hominis; settings: genotype 1b
[8] = Maximum drug absorption in rat at 5 mg/kg, po; format: ADME, organism-based; design: dose 5 mg/kg, route oral; settings: in vivo, read-out: Drug absorption
[9] = system: Hepatitis C virus; experiment: Antiviral activity against Hepatitis C virus subtype 1b harboring protease D168A mutant by transient replicon assay; format: functional, organism-based, Hepacivirus hominis; settings: genotype 1b
[10] = system: Hepatitis C virus; experiment: Antiviral activity against Hepatitis C virus subtype 1b harboring protease A156V mutant by transient replicon assay; format: functional, organism-based, Hepacivirus hominis; settings: genotype 1b
[11] = system: Hepatitis C virus; experiment: Ratio of EC50 for TMC-435350 to EC50 for compound against wild type Hepatitis C virus subtype 1b by transient replicon assay; format: functional, Hepacivirus hominis, genotype 1b
[12] = system: Rattus norvegicus; experiment: AUC in rat at 1 mg/kg, iv; format: ADME, organism-based, Plasma; design: dose 1 mg/kg, route intravenous; settings: in vivo
[13] = system: Hepatitis C virus; experiment: Ratio of EC50 for danoprevir to EC50 for compound against Hepatitis C virus subtype 1b harboring protease D168A mutant by transient replicon assay; format: functional, Hepacivirus hominis, genotype 1b
[14] = Terminal half life in rat liver at 5 mg/kg, po; format: ADME, organism-based; design: dose 5 mg/kg, route oral; settings: read-out: beta t1/2 (converted)
[15] = system: Hepatitis C virus; experiment: Ratio of EC50 for TMC-435350 to EC50 for compound against Hepatitis C virus subtype 1b harboring protease D168A mutant by transient replicon assay; format: functional, Hepacivirus hominis, genotype 1b
[16] = system: Hepatitis C virus; experiment: Antiviral activity against wild type Hepatitis C virus subtype 1b by transient replicon assay; format: functional, organism-based, Hepacivirus hominis; settings: genotype 1b
[17] = system: Hepatitis C virus; experiment: Antiviral activity against Hepatitis C virus subtype 1b harboring protease R155K mutant by transient replicon assay; format: functional, organism-based, Hepacivirus hominis; settings: genotype 1b
[18] = system: Hepatitis C virus; experiment: Ratio of EC50 for danoprevir to EC50 for compound against Hepatitis C virus subtype 1b harboring protease D168V mutant by transient replicon assay; format: functional, Hepacivirus hominis, genotype 1b
[19] = system: Hepatitis C virus; experiment: Ratio of EC50 for danoprevir to EC50 for compound against Hepatitis C virus subtype 1b harboring protease A156T mutant by transient replicon assay; format: functional, Hepacivirus hominis, genotype 1b
[20] = system: Hepatitis C virus; experiment: Ratio of EC50 for TMC-435350 to EC50 for compound against Hepatitis C virus subtype 1b harboring protease D168V mutant by transient replicon assay; format: functional, Hepacivirus hominis, genotype 1b
[21] = system: Hepatitis C virus; experiment: Ratio of EC50 for TMC-435350 to EC50 for compound against Hepatitis C virus subtype 1b harboring protease A156V mutant by transient replicon assay; format: functional, Hepacivirus hominis, genotype 1b
[22] = system: Hepatitis C virus; experiment: Antiviral activity against Hepatitis C virus subtype 1a by stable replicon assay; format: functional, organism-based, Hepacivirus hominis
[23] = system: Hepatitis C virus; experiment: Antiviral activity against Hepatitis C virus subtype 1b harboring protease D168V mutant by transient replicon assay; format: functional, organism-based, Hepacivirus hominis; settings: genotype 1b
[24] = Terminal half life in rat at 5 mg/kg, po; format: ADME, organism-based; design: dose 5 mg/kg, route oral; settings: in vivo, read-out: beta t1/2 (converted)
[25] = system: Rattus norvegicus; experiment: Hepatic clearance in rat at 1 mg/kg, iv; format: ADME, organism-based, Liver; design: dose 1 mg/kg, route intravenous; settings: in vivo
[26] = system: Hepatitis C virus; experiment: Ratio of EC50 for TMC-435350 to EC50 for compound against Hepatitis C virus subtype 1b harboring protease A156S mutant by transient replicon assay; format: functional, Hepacivirus hominis, genotype 1b
[27] = system: Hepatitis C virus; experiment: Ratio of EC50 for TMC-435350 to EC50 for compound against Hepatitis C virus subtype 1b harboring protease A156T mutant by transient replicon assay; format: functional, Hepacivirus hominis, genotype 1b
[28] = system: Rattus norvegicus; experiment: Oral bioavailability in rat at 5 mg/kg; format: ADME, organism-based; settings: in vivo
[29] = system: Hepatitis C virus; experiment: Ratio of EC50 for danoprevir to EC50 for compound against wild type Hepatitis C virus subtype 1b by transient replicon assay; format: functional, Hepacivirus hominis, genotype 1b
[30] = system: Hepatitis C virus; experiment: Antiviral activity against Hepatitis C virus subtype 1b by stable replicon assay; format: functional, organism-based, Hepacivirus hominis; settings: genotype 1b
[31] = system: Rattus norvegicus; experiment: Dose normalized AUC in rat at 5 mg/kg, po; format: ADME, organism-based; design: dose 5 mg/kg, route oral; settings: in vivo
[32] = system: Rattus norvegicus; experiment: AUC in rat at 5 mg/kg, po; format: ADME, organism-based, Plasma; design: dose 5 mg/kg, route oral; settings: in vivo
[33] = system: Hepatitis C virus; experiment: Ratio of EC50 for danoprevir to EC50 for compound against Hepatitis C virus subtype 1b harboring protease A156V mutant by transient replicon assay; format: functional, Hepacivirus hominis, genotype 1b
[34] = system: Hepatitis C virus; experiment: Ratio of EC50 for danoprevir to EC50 for compound against Hepatitis C virus subtype 1b harboring protease A156S mutant by transient replicon assay; format: functional, Hepacivirus hominis, genotype 1b

COc1ccc2c(O[C@@H]3C[C@H]4C(=O)N[C@]5(C(=O)NS(=O)(=O)C6CC6)C[C@H]5/C=C\CCCCC[C@H](NC(=O)N5CCCCC5)C(=O)N4C3)cc(-c3nc(C(C)C)cs3)nc2c1C
Ratio EC50 [1]: 9
Ratio [2]: 1158
pIC50 [3]: 8.30
pEC50 [4]: 10.00
AUC [5]: 308 µg·h/mL
Ratio EC50 [6]: 14
pEC50 [7]: 8.70
Fa [8]: 20%
pEC50 [9]: 7.49
pEC50 [10]: 8.15
Ratio EC50 [11]: 23
AUC [12]: 0.268 µg·h/mL
Ratio EC50 [13]: 1
half-life [14]: 486 min
Ratio EC50 [15]: 5
pEC50 [16]: 10.40
pEC50 [17]: 8.22
Ratio EC50 [18]: 0.3
Ratio EC50 [19]: 5
Ratio EC50 [20]: 2
Ratio EC50 [21]: 49
pEC50 [22]: 9.40
pEC50 [23]: 7.10
half-life [24]: 69.6 min
CLH [25]: 83.4 mL/min/kg
Ratio EC50 [26]: 3.5
Ratio EC50 [27]: 43
F [28]: 9.4%
Ratio EC50 [29]: 5
pEC50 [30]: 9.30
AUC/dose [31]: 0.053 kg·µg·h/mL/mg
AUC [32]: 0.266 µg·h/mL
Ratio EC50 [33]: 1
Ratio EC50 [34]: 21
